The record followed here is patent US5376676A (Allergan, Inc., priority 1991, dated 1994).

Experiment [1] concerns the target bee venom phospholipase A2 (Apis mellifera, UniProt P00630). The experiment is described as follows: biochemical. The settings on record: read-out: IC50 PLA2.
For experiment [2], the target named is phosphoinositide-specific phospholipase C. The experiment is described as follows: Inhibition of phosphoinositide-specific phospholipase C assay (PLC). The experiment is classed as biochemical. From the text:
Inhibition of Phosphoinositide-specific Phospholipase C
The effect of compounds of this invention on phosphoinositide-specific phospholipase-C may be determined by procedures described by Bennett et al, Molecular Pharmacology 32:587-593 (1987).

Experiment [3] relates to Ca2+ channel mobilization (TRH induced). The experiment is described as follows: Calcium channel (mobilization) inhibition assay, TRH induced. The settings on record: for IC50: TRH induced calcium mobilization. The class given is cell-based. From the text:
(§1) Calcium Channel (Mobilization) Inhibition Assay
(§2) Polymorphonuclear leukocytes (PMNa), gastric glands, GH3 cells, A431 cells, spleen cells, human keratinocytes corneal cells, etc. were loaded with the Ca^2+ sensitive fluorescent dye, Fura-2. The appropriate cell type was chosen and the potency and efficacy of the anti-inflammatory furanones on calcium mobilization, calcium channel inhibition quantitated. The methods used for A431 cells listed below are representative of those used for other cells.
(§3) A431 cells were detached using a 5-10 min trypsin-EDTA treatment whereas GH3 cells were treated 2 to 5 min with a 1% pancreatin solution. Cells were immediately washed twice in a 20 mM HEPES buffer (pH 7.4) containing 120 mM NaCl, 6 mM KCl, 1 mM MgSO4, 1 mg/ml glucose and 1 mg/ml pyruvate and 1.4 mM calcium (medium A). Approximately 5×10^6 cells were suspended in medium A and incubated with 4 μM fura-2-AM for 15 min at 37° C.
Fluorescence was continuously recorded with a Perkin-Elmer LS-5 spectrofluorometer. The excitation wavelength was set at 340 nm and emission wavelength set at 500 nm. The cell suspension was continually stirred, maintained at 37° C. and equilibrated for approximately 5 min before addition of various agents. [Ca^2+ ]i was calculated using the following formula: [formula]
(§4) All fluorescence values were measured relative to a EGTA-quenched signal determined as follows: F was the relative fluorescence measurement of the sample. Fmax was determined by lysing the cells with digitonin (100 μg/ml) in DMSO. After Fmax was determined the pH was adjusted to 8, with NaOH and Ca^2+ chelated with 3 mM EGTA to totally quench the fura-2 signal and obtain Fmin.
(§5) When quin-2 was used, cells were Incubated with 10 μM quin-2 at 37° C. for 1 hr, washed and then used.

Experiment [4] relates to Ca2+ channel mobilization (KCl induced). The experiment is described as follows: Calcium channel (mobilization) inhibition assay, KCl induced. The class given is cell-based.
Excerpt: as §1, §2, §3
After washing the fura-2 loaded cells, the uptake of dye was checked using fluorescence micioscopy and found to be evenly distributed in the cytosol of all cells. Fluorescence was continuously recorded with a Perkin-Elmer LS-5 spectrofluorometer. The excitation wavelength was set at 340 nm and emission wavelength set at 500 nm. The cell suspension was continually stirred, maintained at 37° C. and equilibrated for approximately 5 min before addition of various agents. [Ca^2+ ]i was calculated using the following formula: [formula]
as §4, §5

Sequence of bee venom phospholipase A2 (P00630 34-167 limits assumed): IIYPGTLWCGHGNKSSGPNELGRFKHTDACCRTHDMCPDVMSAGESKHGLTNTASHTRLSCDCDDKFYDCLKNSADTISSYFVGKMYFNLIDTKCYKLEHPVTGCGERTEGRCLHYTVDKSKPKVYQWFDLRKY

For `CCCCCCCCCCCCCC1=CC(=O)OC1` [Compound 1, 4-tridecyl-2(5H)-furanone], the IC50 is more than 3.3 µM in experiment [1], more than 100 µM in experiment [2], 2.6 µM in experiment [3] and 1.5 µM in experiment [4]. Further, the “Selectivity between calcium channel inhibition and phospholipase inhibition” value in experiment [3] (conclusion from Table 1 (Ca2+ TRH/KCl vs PLA2, PLC)) is recorded as “selective calcium channel inhibitor”.
Take `CCCCCCCCCCCCCC1=CC(=O)OC1O` (stereo not drawn) [Compound 2, 4-tridecyl-5-hydroxy-2(5H)-furanone]: the half-inhibitory concentration (IC50) was 0.09 µM in experiment [1], more than 100 µM in experiment [2], 3 µM in experiment [3] and 3 µM in experiment [4].
Take `CC1=C(CC/C(C)=C/CCC2=CCC(C3=CC(=O)OC3O)OC2O)C(C)(C)CCC1` (stereo not drawn) [manoalide, reference compound]: the results for the IC50 in experiment [2], in experiment [3] and in experiment [4] were 3 µM, 0.6 µM and 0.8 µM, respectively.
